Data set [1] has as its system lung and colonic tissue, splenic T cells. In words: RNA-seq of non-tumor tissues from indisulam-treated animals. In kind it is in vivo, mouse. The protocol: Bulk lung and colon were homogenized using a Qiagen TissueRuptor. For all tissues and cell types, RNA was extracted using an RNeasy kit (Qiagen, Frederick, Md.) and quantified using a NanoDrop 8000 (ThermoFisher Scientific). A minimum of 500 ng of high-quality RNA (as determined by Agilent Bioanalyzer) per sample or replicate was used for library preparation. Poly(A)-selected, strand-specific (dUTP method) Illumina libraries were prepared with a modified TruSeq protocol and sequenced on the Illumina HiSeq 2000 (˜100M 2×101 bp paired-end reads per sample or replicate).
RNA-seq analysis was performed as previously described (Dvinge, H., et al. (2014). Sample processing obscures cancer-specific alterations in leukemic transcriptomes. Proc Natl Acad Sci USA 111, 16802-16807, incorporated herein by reference in its entirety). […] Aligned reads from these two mapping steps were merged to generate final BAM files for all subsequent analyses.
MISO v2.0 was used to quantify all expression of isoforms arising from exon skipping (cassette exons), competing 5′ splice site selection, competing 3′ splice site selection, and annotated intron retention. […]

In another data set the target is H-2D^b (Mus musculus, UniProt P01899). Briefly: MHC I immunoprecipitation and LC-MS/MS, H-2D^b. The data set is classed as cell-based. An excerpt:
Peptide-MHC complexes were isolated as previously described (Abelin, J. G., et al. (2017). Mass Spectrometry Profiling of HLA-Associated Peptidomes in Mono-allelic Cells Enables More Accurate Epitope Prediction. Immunity 46, 315-326, incorporated herein by reference in its entirety), with the following modifications: anti-mouse H-2D^b (clone B22-249.R1, CedarLane laboratories, Cat. CL9001AP) or H-2K^b (clone Y-3, BioXCell Cat. BE0172) non-covalently linked to GammaBind Plus Sepharose beads were co-incubated with soluble lysates overnight. […]
Desalted, dried samples enriched for MHC peptides were resolubilized in 8 uL 0.10% TFA and 3 uL were loaded onto a packed-in-emitter 12 cm/75 um ID/3 um C18 particles column (Nikkyo Technos Co., Ltd. Japan). […] Precursor mass spectra were recorded from m/z 300-1500 m/z range at 60,000 resolution. […] MS/MS spectra were recorded at 30,000 resolution and lowest mass set at m/z 110. […] All experiments were recorded in FT-mode.
Mass spectra from all MHC immunoprecipitations were analyzed using Proteome Discoverer v2.4.1.15, with the following workflow. […]

The record followed here is patent US20230190707A1, “COMPOSITIONS AND METHODS FOR ENHANCING CANCER IMMUNOTHERAPY” (FRED HUTCHINSON CANCER CENTER, priority 2020, published 2023).

Sequence of H-2D^b (P01899 25-362 limits assumed): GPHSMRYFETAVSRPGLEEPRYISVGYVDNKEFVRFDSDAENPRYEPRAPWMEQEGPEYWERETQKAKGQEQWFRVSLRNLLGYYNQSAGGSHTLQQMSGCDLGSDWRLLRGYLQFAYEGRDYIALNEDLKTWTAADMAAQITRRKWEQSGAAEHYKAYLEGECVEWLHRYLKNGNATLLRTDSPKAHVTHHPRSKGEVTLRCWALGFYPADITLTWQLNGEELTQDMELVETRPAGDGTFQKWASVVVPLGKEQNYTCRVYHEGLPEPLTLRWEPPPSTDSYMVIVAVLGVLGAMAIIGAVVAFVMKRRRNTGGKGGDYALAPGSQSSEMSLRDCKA

Regarding `NS(=O)(=O)c1ccc(S(=O)(=O)Nc2cccc3c(Cl)c[nH]c23)cc1` [indisulam], in data set [1], the “splicing changes in lung, colonic tissue and splenic T cells” value is reported as “only mild changes in splicing”. For the same compound, on H-2D^b (B16-F10 cells), the “peptides only recovered from indisulam-treated samples” value came to 518. Also, at H-2D^b (intersection with RNA-seq), the “bound peptides arising from mRNA isoforms specifically promoted by indisulam treatment” value is reported as 42.
